Data: US20230099756A1, “METHODS OF USING ANTI-CD79B IMMUNOCONJUGATES TO TREAT DIFFUSE LARGE B-CELL LYMPHOMA” (Genentech, Inc., priority 2021, published 2023)
Where a SMILES comes first, the peptide text is derived from it. [ ]: non-standard residue; d: D form. The star is where a group is joined. Dolaproine = CO[C@@H]([C@@H]1CCCN1)[C@@H](C)C(=O)O; Dil = CC[C@H](C)[C@H](NC)[C@@H](CC(=O)O)OC; X1 = C[C@@H](N*)[C@@H](O)c1ccccc1; NMeV = CN[C@H](C(=O)O)C(C)C

Legend:
Assay type in all cases: in vitro ADME
CYP2D6 = CYP2D6 (Homo sapiens, UniProt P10635); experiment: In vitro metabolism of unconjugated MMAE; conditions: in vitro data
Sequence of CYP2D6 (P10635 whole entry): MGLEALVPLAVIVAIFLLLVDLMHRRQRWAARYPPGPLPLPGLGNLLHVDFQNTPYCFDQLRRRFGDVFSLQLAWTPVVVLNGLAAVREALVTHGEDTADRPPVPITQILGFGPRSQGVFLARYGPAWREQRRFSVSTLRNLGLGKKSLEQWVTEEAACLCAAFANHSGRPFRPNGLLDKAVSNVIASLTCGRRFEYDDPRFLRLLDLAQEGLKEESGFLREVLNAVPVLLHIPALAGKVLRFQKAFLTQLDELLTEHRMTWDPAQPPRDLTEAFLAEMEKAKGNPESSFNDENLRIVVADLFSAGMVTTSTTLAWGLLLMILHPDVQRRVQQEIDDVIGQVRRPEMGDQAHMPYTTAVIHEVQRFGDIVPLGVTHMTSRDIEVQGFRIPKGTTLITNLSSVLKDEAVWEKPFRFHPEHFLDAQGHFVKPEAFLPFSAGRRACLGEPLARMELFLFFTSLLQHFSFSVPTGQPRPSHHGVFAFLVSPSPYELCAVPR
Text: (§1) Based on a validated physiological-based PK model simulation, strong CYP3A4 inhibitors may increase the exposure (e.g., area under the concentration-time curve) of unconjugated MMAE by […] while acMMAE PK is not affected. Concomitant medications that are strong CYP3A4 inhibitors are considered cautionary as they may potentially lead to adverse reactions, which require close monitoring. […] Concomitant medications that are P-gp inhibitors are considered cautionary as they may potentially lead to adverse reactions, which require close monitoring.

CYP3A4 = CYP3A4 (Homo sapiens, UniProt P08684); experiment: In vitro metabolism of unconjugated MMAE; conditions: in vitro data
Sequence of CYP3A4 (P08684 whole entry): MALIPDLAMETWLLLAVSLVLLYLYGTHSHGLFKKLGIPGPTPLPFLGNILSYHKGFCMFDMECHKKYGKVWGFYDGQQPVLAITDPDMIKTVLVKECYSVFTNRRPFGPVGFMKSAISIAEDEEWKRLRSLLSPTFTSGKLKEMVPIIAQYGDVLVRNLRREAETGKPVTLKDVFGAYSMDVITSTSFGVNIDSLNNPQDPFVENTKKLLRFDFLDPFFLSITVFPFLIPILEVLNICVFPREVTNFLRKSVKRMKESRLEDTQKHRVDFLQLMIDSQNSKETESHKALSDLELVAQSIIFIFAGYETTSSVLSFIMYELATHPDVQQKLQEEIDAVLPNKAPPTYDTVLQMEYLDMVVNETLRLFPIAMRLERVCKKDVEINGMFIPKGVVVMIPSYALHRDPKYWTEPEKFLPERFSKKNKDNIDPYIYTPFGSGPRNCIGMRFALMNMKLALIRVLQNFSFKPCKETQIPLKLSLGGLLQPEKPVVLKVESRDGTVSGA
Text: as §1

P-glycoprotein (P-gp) = P-glycoprotein (P-gp) (Homo sapiens, UniProt P08183); experiment: P-glycoprotein substrate and inhibitor status of MMAE
Sequence of P-glycoprotein (P-gp) (P08183 whole entry): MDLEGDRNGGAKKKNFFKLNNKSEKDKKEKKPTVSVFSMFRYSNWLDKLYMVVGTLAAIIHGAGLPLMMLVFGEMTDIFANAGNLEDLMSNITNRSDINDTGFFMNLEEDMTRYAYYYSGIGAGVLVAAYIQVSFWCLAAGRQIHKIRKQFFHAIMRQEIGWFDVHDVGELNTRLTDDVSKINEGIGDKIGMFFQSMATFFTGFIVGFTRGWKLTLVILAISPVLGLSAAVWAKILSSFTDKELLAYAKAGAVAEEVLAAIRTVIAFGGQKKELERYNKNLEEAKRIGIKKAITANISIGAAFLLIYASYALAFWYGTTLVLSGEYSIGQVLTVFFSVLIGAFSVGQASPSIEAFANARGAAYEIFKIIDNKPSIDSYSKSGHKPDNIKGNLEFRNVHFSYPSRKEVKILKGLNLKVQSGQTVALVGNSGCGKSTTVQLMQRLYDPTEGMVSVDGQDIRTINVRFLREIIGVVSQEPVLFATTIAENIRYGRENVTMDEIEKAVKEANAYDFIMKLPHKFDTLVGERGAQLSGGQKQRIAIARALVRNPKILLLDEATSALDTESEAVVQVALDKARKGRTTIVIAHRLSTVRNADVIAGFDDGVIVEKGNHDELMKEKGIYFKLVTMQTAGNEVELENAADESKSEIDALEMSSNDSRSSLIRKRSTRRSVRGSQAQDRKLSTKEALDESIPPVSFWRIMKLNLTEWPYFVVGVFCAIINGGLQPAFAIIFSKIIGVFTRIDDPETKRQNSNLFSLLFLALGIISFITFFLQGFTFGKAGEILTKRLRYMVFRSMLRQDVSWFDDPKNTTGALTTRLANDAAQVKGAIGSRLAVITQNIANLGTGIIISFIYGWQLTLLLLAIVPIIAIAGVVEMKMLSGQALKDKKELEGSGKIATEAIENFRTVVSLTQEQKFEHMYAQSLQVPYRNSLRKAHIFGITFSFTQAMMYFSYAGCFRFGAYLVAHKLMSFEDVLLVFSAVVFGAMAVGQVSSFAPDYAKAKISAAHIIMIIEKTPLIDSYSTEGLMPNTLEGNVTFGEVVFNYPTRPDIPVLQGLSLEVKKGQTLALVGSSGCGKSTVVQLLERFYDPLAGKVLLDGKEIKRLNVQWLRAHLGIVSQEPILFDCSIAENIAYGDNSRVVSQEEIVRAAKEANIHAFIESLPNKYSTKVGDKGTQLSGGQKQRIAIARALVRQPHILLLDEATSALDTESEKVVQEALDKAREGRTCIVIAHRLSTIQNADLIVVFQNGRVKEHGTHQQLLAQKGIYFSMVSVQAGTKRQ
Text: as §1

Q: How did the “metabolism by CYP2D6” value (CYP2D6) turn out when CC[C@H](C)[C@@H]([C@@H](CC(=O)N1CCC[C@H]1[C@H](OC)[C@@H](C)C(=O)N[C@H](C)[C@@H](O)c1ccccc1)OC)N(C)C(=O)[C@@H](NC(=O)[C@@H](NC)C(C)C)C(C)C [MMAE] (H-[NMeV]V[Dil][Dolaproine]-X1) was run?
A: to a lesser extent, by CYP2D6

Q: And the “metabolism by CYP3A4” value (CYP3A4)?
A: mainly metabolized by CYP3A4

Q: What about the P-gp inhibitor status (P-glycoprotein (P-gp)) of the same molecule?
A: not a P-gp inhibitor

Q: What about the P-gp substrate status (P-glycoprotein (P-gp)) of the same molecule?
A: P-glycoprotein (P-gp) substrate
